Like-named read-outs stand apart in the source and are kept apart here.
Target: CFTR (Homo sapiens, UniProt P13569)
Assay: Membrane Potential Dye, Enteroid Assay B
Type: cell-based
Procedure, shortened: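 Activity given as % of a triple-combination reference (1 μM and 3 μM correctors, 300 nM acute potentiator). Enteroids were preincubated 18-24 h with compound; chloride efflux then measured 15 min by methyl oxonol fluorescence after forskolin/IBMX/Compound III stimulation in chloride-free buffer containing CaCCinh-A01 and Chicago Sky Blue.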

[1] = Table 10, read-out: Ent. B EC50

Chain of CFTR (P13569 with tags, fused parts or gaps DEL508-508): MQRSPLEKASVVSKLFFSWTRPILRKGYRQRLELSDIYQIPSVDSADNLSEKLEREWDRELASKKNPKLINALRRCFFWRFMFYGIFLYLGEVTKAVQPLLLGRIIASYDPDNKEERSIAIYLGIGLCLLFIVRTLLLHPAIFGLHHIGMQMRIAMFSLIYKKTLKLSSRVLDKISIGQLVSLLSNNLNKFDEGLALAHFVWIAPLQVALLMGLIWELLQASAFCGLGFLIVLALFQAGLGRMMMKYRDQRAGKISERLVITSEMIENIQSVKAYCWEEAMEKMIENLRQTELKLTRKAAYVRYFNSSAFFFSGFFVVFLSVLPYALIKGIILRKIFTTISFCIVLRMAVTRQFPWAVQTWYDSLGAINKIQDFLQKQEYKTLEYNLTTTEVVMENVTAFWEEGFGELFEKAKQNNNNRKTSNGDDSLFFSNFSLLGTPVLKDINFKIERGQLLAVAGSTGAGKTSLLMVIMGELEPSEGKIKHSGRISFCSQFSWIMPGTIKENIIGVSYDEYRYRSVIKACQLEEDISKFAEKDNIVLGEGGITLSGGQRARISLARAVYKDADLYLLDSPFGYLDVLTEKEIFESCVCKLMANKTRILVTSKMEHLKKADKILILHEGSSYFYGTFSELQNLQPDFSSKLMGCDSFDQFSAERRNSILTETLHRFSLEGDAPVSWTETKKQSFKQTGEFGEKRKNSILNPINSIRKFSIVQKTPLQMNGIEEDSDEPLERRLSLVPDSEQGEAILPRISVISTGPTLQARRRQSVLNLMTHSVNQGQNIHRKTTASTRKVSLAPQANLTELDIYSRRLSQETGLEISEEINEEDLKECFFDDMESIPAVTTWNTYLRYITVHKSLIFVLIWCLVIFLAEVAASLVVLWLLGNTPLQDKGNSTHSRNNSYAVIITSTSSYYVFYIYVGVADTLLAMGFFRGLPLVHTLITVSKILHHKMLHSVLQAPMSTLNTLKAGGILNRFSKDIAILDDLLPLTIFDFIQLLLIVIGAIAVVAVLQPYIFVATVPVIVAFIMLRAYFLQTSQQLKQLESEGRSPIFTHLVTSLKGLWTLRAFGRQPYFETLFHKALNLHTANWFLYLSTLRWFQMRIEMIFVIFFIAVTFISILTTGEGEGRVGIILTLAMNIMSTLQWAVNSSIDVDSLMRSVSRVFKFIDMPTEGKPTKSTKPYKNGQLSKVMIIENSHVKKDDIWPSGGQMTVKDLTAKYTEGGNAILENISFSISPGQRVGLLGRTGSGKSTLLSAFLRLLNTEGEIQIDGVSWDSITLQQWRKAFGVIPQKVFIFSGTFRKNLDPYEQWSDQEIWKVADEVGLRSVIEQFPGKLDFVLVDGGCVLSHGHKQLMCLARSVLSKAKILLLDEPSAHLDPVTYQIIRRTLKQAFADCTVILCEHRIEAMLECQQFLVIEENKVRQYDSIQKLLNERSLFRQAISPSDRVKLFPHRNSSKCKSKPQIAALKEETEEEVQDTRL

Row | Structure (SMILES) | Ent. B Max Activity (%) (Table 10) | EC50 [1] | other results
1 | COC(=O)N1CCC2(CC1)CC(N1C(=O)c3cccc(c3)S(=O)(=O)Nc3nc(cc(-c4c(C)cccc4C)n3)OC[C@H]1CC(C)(C)C(F)(F)F)C2 [Compound 191, Methyl 2-[(11R)-6-(2,6-dimethylphenyl)-2,2,13-trioxo-11-(3,3,3-trifluoro-2,2-dimethylpropyl)-9-oxa-2λ^6-thia-3,5,12,19-tetraazatricyclo[12.3.1.14,8]nonadeca-1(17),4(19),5,7,14(18),15-hexaen-12-yl]-7-azaspiro[3.5]nonane-7-carboxylate] | – | – | Ent. B Max Activity (%) (Table 9): +++ (+++ is >60%); EC50 (Table 9, read-out: Ent. B EC50): < 1000 nM
2 | Cc1cccc(C)c1-c1cc2nc(n1)NS(=O)(=O)c1cccc(c1)C(=O)N(C1CC3(CCNC(=O)C3)C1)[C@H](CC(C)C)CO2 (stereo partly drawn) [Compound 200] | ++ (++ is 30-60%) | < 1000 nM | –
3 | Cc1cccc(C)c1-c1cc2nc(n1)NS(=O)(=O)c1cccc(c1)C(=O)N(C1CC3(CCNC(=O)C3)C1)[C@H](CC(C)C)CO2 (stereo partly drawn) [Compound 201] | ++ (++ is 30-60%) | < 1000 nM | –
4 | CC(C)C[C@@H]1COc2cc(-c3c(F)cccc3C(F)(F)F)nc(n2)NS(=O)(=O)c2cccc(c2)C(=O)N1C1CC2(CC2)C1 [Compound 202] | ++ (++ is 30-60%) | < 1000 nM | –
5 | CC(=O)N1CCC12CC(N1C(=O)c3cccc(c3)S(=O)(=O)Nc3nc(cc(-c4c(C)cccc4C)n3)OC[C@H]1CC(C)(C)C)C2 (stereo partly drawn) [Compound 207] | +++ (+++ is >60%) | < 1000 nM | –
6 | Cc1cccc(C)c1-c1cc2nc(n1)NS(=O)(=O)c1cccc(c1)C(=O)N(C1CCCCC1)[C@H](CC(C)(C)C)CO2 [Compound 208] | + (+ is <300%) | – | –
7 | Cc1cccc(C)c1-c1cc2nc(n1)NS(=O)(=O)c1cccc(c1)C(=O)N([C@H]1C[C@@H](OC(F)(F)C(F)(F)F)C1)[C@H](CC(C)C)CO2 [Compound 210] | ++ (++ is 30-60%) | < 1000 nM | –
8 | Cc1cccc(C)c1-c1cc2nc(n1)NS(=O)(=O)c1cccc(c1)C(=O)N([C@H]1C[C@H](OC(F)(F)C(F)(F)F)C1)[C@H](CC(C)C)CO2 [Compound 211] | + (+ is <300%) | – | –
9 | Cc1cccc(C)c1-c1cc2nc(n1)NS(=O)(=O)c1cccc(c1)C(=O)N(C1CC3(CCN(CCOC(C)C)CC3)C1)[C@H](CC(C)(C)C)CO2 [Compound 215] | – | – | Ent. B Max Activity (%): +++ (+++ is >60%); EC50 (read-out: Ent. B EC50): < 1000 nM
10 | Cc1cccc(C)c1-c1cc2nc(n1)NS(=O)(=O)c1cccc(c1)C(=O)N(C1CC3(CC3)C1)C(CC(C)(C)C(F)(F)F)CO2 (stereo not drawn) [Compound 217] | – | – | Ent. B Max Activity (%): +++ (+++ is >60%); EC50 (read-out: Ent. B EC50): < 1000 nM
11 | Cc1cccc(C)c1-c1cc2nc(n1)NS(=O)(=O)c1cccc(c1)C(=O)N(C1CS(=O)(=O)C1)[C@H](CC(C)(C)C)CO2 [Compound 222] | +++ (+++ is >60%) | < 1000 nM | –
12 | COC(=O)N1CCC(n2cc(N3C(=O)c4cccc(c4)S(=O)(=O)Nc4nc(cc(-c5c(C)cccc5C)n4)OC[C@H]3CC(C)(C)C)cn2)CC1 [Compound 223] | + (+ is <300%) | < 1000 nM | –
13 | COCCN1CCC(n2cc(N3C(=O)c4cccc(c4)S(=O)(=O)Nc4nc(cc(-c5c(C)cccc5C)n4)OC[C@H]3CC(C)(C)C)cn2)CC1 [Compound 224] | + (+ is <300%) | – | –
14 | COCCn1cc(N2C(=O)c3cccc(c3)S(=O)(=O)Nc3nc(cc(-c4c(C)cccc4C)n3)OC[C@H]2CC(C)(C)C)cn1 [Compound 225] | +++ (+++ is >60%) | < 1000 nM | –
15 | Cc1cccc(C)c1-c1cc2nc(n1)NS(=O)(=O)c1cccc(c1)C(=O)N(c1cnn(C3CCN(Cc4ccccc4)CC3)c1)[C@H](CC(C)(C)C)CO2 [Compound 226] | + (+ is <300%) | < 1000 nM | –
16 | Cc1cccc(C)c1-c1cc2nc(n1)NS(=O)(=O)c1cccc(c1)C(=O)N(c1cn(C)nc1C)[C@H](CC(C)(C)C)CO2 [Compound 227] | +++ (+++ is >60%) | < 1000 nM | –
17 | Cc1cccc(C)c1-c1cc2nc(n1)NS(=O)(=O)c1cccc(c1)C(=O)N(c1cnn(C(C)C)c1)[C@H](CC(C)(C)C)CO2 [Compound 228] | +++ (+++ is >60%) | < 1000 nM | –
18 | Cc1cccc(C)c1-c1cc2nc(n1)NS(=O)(=O)c1cccc(c1)C(=O)N(c1cnn(CC(C)C)c1)[C@H](CC(C)(C)C)CO2 [Compound 229] | +++ (+++ is >60%) | < 1000 nM | –
19 | Cc1cccc(C)c1-c1cc2nc(n1)NS(=O)(=O)c1cccc(c1)C(=O)N(c1cnn(C)c1)[C@H](CC(C)(C)C)CO2 [Compound 230] | +++ (+++ is >60%) | < 1000 nM | –
20 | CCC(=O)N1C[C@H]2C[C@@H](C1)[C@H]2N1C(=O)c2cccc(c2)S(=O)(=O)Nc2nc(cc(-c3c(C)cccc3C)n2)OC[C@H]1CC(C)(C)C [Compound 231] | ++ (++ is 30-60%) | – | EC50 (read-out: Ent. B EC50, Table 10): < 1000 nM
21 | Cc1cccc(C)c1-c1cc2nc(n1)NS(=O)(=O)c1cccc(c1)C(=O)N(C1CC3(CC(C(N)=O)C3)C1)[C@H](CC(C)(C)C)CO2 (stereo partly drawn) [Compound 232] | +++ (+++ is >60%) | < 1000 nM | –

Row | Structure (SMILES) | Ent. B Max Activity (%) (Table 10) | EC50 [1] | other results
22 | Cc1cccc(C)c1-c1cc2nc(n1)NS(=O)(=O)c1cccc(c1)C(=O)N(C1CC3(CC(C(N)=O)C3)C1)[C@H](CC(C)(C)C)CO2 (stereo partly drawn) [Compound 233] | +++ (+++ is >60%) | < 1000 nM | –
23 | CNC(=O)C1CC2(C1)CC(N1C(=O)c3cccc(c3)S(=O)(=O)Nc3nc(cc(-c4c(C)cccc4C)n3)OC[C@H]1CC(C)(C)C)C2 (stereo partly drawn) [Compound 234] | +++ (+++ is >60%) | < 1000 nM | –
24 | CNC(=O)C1CC2(C1)CC(N1C(=O)c3cccc(c3)S(=O)(=O)Nc3nc(cc(-c4c(C)cccc4C)n3)OC[C@H]1CC(C)(C)C)C2 (stereo partly drawn) [Compound 235] | +++ (+++ is >60%) | < 1000 nM | –
25 | CCC(=O)NC1(C)CC(N2C(=O)c3cccc(c3)S(=O)(=O)Nc3nc(cc(-c4c(C)cccc4C)n3)OC[C@H]2CC(C)(C)C)C1 (stereo partly drawn) [Compound 242] | ++ (++ is 30-60%) | < 1000 nM | –
26 | CCC(=O)NC1(C)CC(N2C(=O)c3cccc(c3)S(=O)(=O)Nc3nc(cc(-c4c(C)cccc4C)n3)OCC2CC(C)(C)C)C1 (stereo not drawn) [Compound 243] | +++ (+++ is >60%) | < 1000 nM | –
27 | Cc1cccc(C)c1-c1cc2nc(n1)NS(=O)(=O)c1cccc(c1)C(=O)N([C@H]1C[C@]3(C[C@H](NC(=O)C(C)C)C3)C1)[C@H](CC1(C(F)(F)F)CC1)CO2 (stereo partly drawn) [Compound 246] | +++ (+++ is >60%) | < 1000 nM | –
28 | Cc1cccc(C)c1-c1cc2nc(n1)NS(=O)(=O)c1cccc(c1)C(=O)N([C@H]1C[C@@]3(C[C@H](NC(=O)C(C)C)C3)C1)[C@H](CC1(C(F)(F)F)CC1)CO2 (stereo partly drawn) [Compound 247] | +++ (+++ is >60%) | < 1000 nM | –
29 | CCC(=O)N[C@H]1C[C@@]2(C1)C[C@H](N1C(=O)c3cccc(c3)S(=O)(=O)Nc3nc(cc(-c4c(C)cccc4C)n3)OC[C@H]1CC1(C(F)(F)F)CC1)C2 (stereo partly drawn) [Compound 248] | +++ (+++ is >60%) | < 1000 nM | –
30 | CCC(=O)N[C@H]1C[C@]2(C1)C[C@H](N1C(=O)c3cccc(c3)S(=O)(=O)Nc3nc(cc(-c4c(C)cccc4C)n3)OC[C@H]1CC1(C(F)(F)F)CC1)C2 (stereo partly drawn) [Compound 249] | +++ (+++ is >60%) | < 1000 nM | –
31 | [H][C@]1(N2C(=O)c3cccc(c3)S(=O)(=O)Nc3nc(cc(-c4c(C)cccc4C)n3)OC[C@H]2CC(C)C)C[C@@]2(C[C@H](NC(=O)CC)C2)C1 (stereo partly drawn) [Compound 250] | – | < 1000 nM | –
32 | Cc1cccc(C)c1-c1cc2nc(n1)NS(=O)(=O)c1cccc(c1)C(=O)N(C1CC(N(C)C)C1)[C@H](CC(C)(C)C)CO2 (stereo partly drawn) [Compound 253] | ++ (++ is 30-60%) | < 1000 nM | –
33 | Cc1cccc(C)c1-c1cc2nc(n1)NS(=O)(=O)c1cccc(c1)C(=O)N(C1CC(N(C)C)C1)[C@H](CC(C)(C)C)CO2 (stereo partly drawn) [Compound 254] | ++ (++ is 30-60%) | < 1000 nM | –
34 | Cc1cccc(C)c1-c1cc2nc(n1)NS(=O)(=O)c1cccc(c1)C(=O)N(C1CC3(COC(=O)N3)C1)[C@H](CC(C)C)CO2 (stereo partly drawn) [Compound 255] | ++ (++ is 30-60%) | < 1000 nM | –
35 | Cc1cccc(C)c1-c1cc2nc(n1)NS(=O)(=O)c1cccc(c1)C(=O)N(C1CC3(COC(=O)N3)C1)[C@H](CC(C)C)CO2 (stereo partly drawn) [Compound 256] | ++ (++ is 30-60%) | < 1000 nM | –
36 | COCC(C)N1CCC2(CC1)CC(N1C(=O)c3cccc(c3)S(=O)(=O)Nc3nc(cc(-c4c(C)cccc4C)n3)OC[C@H]1CC(C)C)C2 (stereo partly drawn) [Compound 257] | – | – | Ent. B Max Activity (%) (Table 9): +++ (+++ is >60%); EC50 (Table 9, read-out: Ent. B EC50): < 1000 nM
37 | CCN1CCC2(CC1)CC(N1C(=O)c3cccc(c3)S(=O)(=O)Nc3nc(cc(-c4c(C)cccc4C)n3)OC[C@H]1CC(C)C)C2 [Compound 258] | – | – | Ent. B Max Activity (%) (Table 9): +++ (+++ is >60%); EC50 (Table 9, read-out: Ent. B EC50): < 1000 nM
38 | COC(=O)N1CCC2(CC1)CC(N1C(=O)c3cccc(c3)S(=O)(=O)Nc3nc(cc(-c4c(C)cccc4C)n3)OC[C@H]1CC1(C(F)(F)F)CC1)C2 [Compound 261] | – | – | Ent. B Max Activity (%) (Table 9): +++ (+++ is >60%); EC50 (Table 9, read-out: Ent. B EC50): < 1000 nM
39 | COC(=O)N1CCC2(CC1)CC(N1C(=O)c3cccc(c3)S(=O)(=O)Nc3nc(cc(-c4c(C)cccc4C)n3)OC[C@H]1CC(C)(C)C)C2 [Compound 262] | – | – | Ent. B Max Activity (%) (Table 9): +++ (+++ is >60%); EC50 (Table 9, read-out: Ent. B EC50): < 1000 nM
40 | COC(=O)NCC1CC(N2C(=O)c3cccc(c3)S(=O)(=O)Nc3nc(cc(-c4c(C)cccc4C)n3)OC[C@H]2CC(C)C)C1 (stereo partly drawn) [Compound 263] | – | – | Ent. B Max Activity (%) (Table 9): +++ (+++ is >60%); EC50 (Table 9, read-out: Ent. B EC50): < 1000 nM
41 | Cc1cccc(C)c1-c1cc2nc(n1)NS(=O)(=O)c1cccc(c1)C(=O)N([C@H]1C[C@]3(C[C@H](NC(C)C)C3)C1)[C@H](CC1(C(F)(F)F)CC1)CO2 (stereo partly drawn) [Compound 265] | – | – | Ent. B Max Activity (%) (Table 9): +++ (+++ is >60%); EC50 (Table 9, read-out: Ent. B EC50): < 1000 nM

From patent US20230382925A1, “MODULATORS OF CYSTIC FIBROSIS TRANSMEMBRANE CONDUCTANCE REGULATOR” (VERTEX PHARMACEUTICALS INCORPORATED, priority 2020, published 2023)
